Measurements as given in patent US5230998A, “Method for the prescreening of drugs targeted to the V3 hypervariable loop of the HIV-1 envelope glycoprotein gp 120” (priority 1991, dated 1993).
Entries after “also recorded” stand apart in the source; their conditions may differ.

Experiments:
[1] = molecular target: T1, V3 hypervariable loop peptide (303-338) (Human immunodeficiency virus type 1 BH10, UniProt P03375); assay: Attachment of ATA determined by anti-ATA antibodies (double antibody RIA); format: binding, HIV-1 BH 10; details: FIG. 1C, FIG. 2
T1 construct: cut from Env gp160
Description: (§1) Antibodies to ATA were detected by double antibody RIA using wells coated with an ATA-ovalbumin conjugate. This conjugate was prepared in the same way as described for the ATA-BSA conjugate. Dilution endpoints of anti-ATA antibodies, determined as described by Ritchie, D. G., Nickerson, J. M., and Fuller, G. M. (1983), "Two Simple Programs for the Analysis of Data from Enzyme-linked Immunosorbent Assays (ELISA) on a Programmable Desk-top Calculator," Methods in Enzymology, 92, 577-588) of the two antisera were: 1:2,700 and 1:150,000, respectively. The second antiserum was used for subsequent RIA tests.
(§2) ATA was also added to a control peptide, (518-542), and to wells coated with gelatin only. After incubation for 4 hours at 20° C., excess ATA was removed, the wells were washed with TS and attached ATA was determined by double-antibody RIA using serial dilutions of the anti-ATA antiserum. Similar tests were carried out with serum from the same rabbit before immunization with the ATA-BSA conjugate; the corresponding results (100-450 cpm) were subtracted from cpm corresponding to RIA results obtained with the anti-ATA antiserum. For additional assays aimed at determining the binding of ATA to synthetic peptides from gp120 and gp41 of HIV-1 BH 10 and to V3 hypervariable loop peptides from 20 additional HIV-1 isolates, anti-ATA antiserum was used at a final dilution of 1:800.

[2] = molecular target: T2, gp120 (Human immunodeficiency virus type 1 BH10, UniProt P03375); assay: as above; format: binding, HIV-1 BH 10; details: FIG. 2; listed as ATA
T2 construct: cut from Env gp160
Description: as §1, §2

[3] = molecular target: peptide (492-518) (Human immunodeficiency virus type 1 BH10, UniProt P03375); assay: as above; format: binding, HIV-1 BH 10; details: FIG. 1C
Description: as §1, §2

[4] = molecular target: T3, HIV-1 JY-1 V3 hypervariable loop peptide (Human immunodeficiency virus type 1 lw12.3 isolate, UniProt Q70626); assay: Reactivity/attachment of ATA with V3 hypervariable loop peptides of distinct HIV-1 isolates (FIG. 4); format: binding
T3 construct: cut from Env gp160
Description: (§3) FIG. 4 comprises bar graphs depicting the interaction of aurintricarboxylic acid (ATA) with full length V3 hypervariable loop peptides from gp120 of distinct HIV-1 isolates (clones). FIG. 4A: Inhibitory effects of ATA (50 μg/ml) on the reaction between peptide-coated wells and homologous anti-peptide antisera (diluted 1:1,000). FIG. 4B: attachment of ATA to distinct V3 hypervariable loop peptide-coated wells as determined by double antibody RIA using rabbit antiserum against ATA.
(§4) To define sites on gp120/gp41 reacting with ATA, the inhibitory effect of this compound was studied by RIA tests using gp120- and gp160-coated wells, respectively, and antisera (final dilutions 1:150) against synthetic peptides from the entire sequence of gp120/gp41 of HIV-1 BH 10. The preparation and biological properties of these antisera were described elsewhere (Neurath et al., (1990), J. Gen. Virol., 71, 85-95). Each of the antisera was diluted in a mixture of fetal bovine serum and goat serum (9:1) containing 0.1% Tween 20, adjusted to pH 8. ATA (final concentration 50 μg/ml) was added in one set of assays, but was omitted from a parallel set. After incubation overnight at 25° C., the plates were washed with TS. Attached rabbit IgG was detected using ^125 I-labeled anti-rabbit IgG, as described before (Neurath et al., 1990, J. Gen. Virol., 71, 85-95). Similarly, the inhibitory effect of ATA on the reaction of peptides derived from gp120/gp41 and of peptides derived from V3 hypervariable loops from gp120 of distinct HIV-1 isolates with the respective homologous anti-peptide antisera was studied. In the latter case, antisera were diluted 1:1,000 for the assays.
(§5) ATA was also added to a control peptide, (518-542), and to wells coated with gelatin only. After incubation for 4 hours at 20° C., excess ATA was removed, the wells were washed with TS and attached ATA was determined by double-antibody RIA using serial dilutions of the anti-ATA antiserum. […]

[5] = molecular target: T4, HIV-1 SC V3 hypervariable loop peptide (Human immunodeficiency virus type 1 (SC ISOLATE), UniProt P05878); assay: as above; format: binding
T4 construct: cut from Env gp160
Description: as §3, §4, §5

T4 sequence (P05878 296-330): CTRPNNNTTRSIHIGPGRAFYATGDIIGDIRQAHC
T3 sequence (Q70626 296-331): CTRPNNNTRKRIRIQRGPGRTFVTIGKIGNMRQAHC

`O=C(O)C1=CC(=C(c2ccc(O)c(C(=O)O)c2)c2ccc(O)c(C(=O)O)c2)C=CC1=O` [substance #122, aurintricarboxylic acid] was tested, and the “binding of ATA to peptide (anti-ATA antibodies)” value [1] was “most efficient binder of ATA”, the “binding of ATA to gp120 (anti-ATA antibodies)” value [2] was “reacted with gp120; also recorded: remained bound to gp120 after removal of the excess of the compound” and the “binding of ATA to peptide (anti-ATA antibodies)” value [3] was “bound to the peptide (492-518)”. The “reactivity of ATA with V3 hypervariable loop peptide” value [4] was “minimal”, the “reactivity of ATA with V3 hypervariable loop peptide” value ([5]; FIG. 4) was “minimal” and the “ATA binding to V3 peptide” value ([5]; FIG. 4B) was “bound very little ATA”.
